Data published in patent US10031417B2, “Compound, colorant including the same, positive photosensitive resin composition including the same and color filter” (SAMSUNG SDI CO., LTD., priority 2016, dated 2018).
Values belong to the compound of their own block, whether it stands above or below them.

Experiment: Solubility measurement in diluting solvents
Assay type: physicochemical
Details: 25° C., 100 rpm, 1 hour, 0.5 g of compound added
Protocol: 0.5 g of each compound according to Synthesis Examples 1 to 3 was respectively added to diluting solvents (MeOH, CH2Cl2, cyclohexanone), each solution was stirred with a rotary mixer (Mixrotar VMR-5, Iuchi Seieido Co., Ltd.) at 25° C. and 100 rpm for 1 hour, and then, the dissolution state of each compound (the amount of the compound dissolved in the solvents) was examined, and the results are provided in Table 1.

Structure (SMILES): CCN(CCOC(=O)Nc1ccccc1)c1ccc2c(-c3ccccc3S(=O)(=O)[O-])c3cc/c(=[N+](/CC)CCOC(=O)Nc4ccccc4)cc-3oc2c1 [Chemical Formula 10]
Amount of dissolved compound (CH2Cl2): >10% wt % | Amount of dissolved compound (Cyclohexanone): 3% wt % | Amount of dissolved compound (MeOH): >10% wt %

Structure (SMILES): CCN(CCOC(=O)NC1CCCCC1)c1ccc2c(-c3ccccc3S(=O)(=O)[O-])c3cc/c(=[N+](/CC)CCOC(=O)NC4CCCCC4)cc-3oc2c1 [Chemical Formula 9]
Amount of dissolved compound (CH2Cl2): >10% wt % | Amount of dissolved compound (Cyclohexanone): 5% wt % | Amount of dissolved compound (MeOH): >10% wt %

Structure (SMILES): CCN(CCOC(=O)Nc1ccccc1)c1ccc2c(-c3ccccc3S(=O)(=O)[O-])c3ccc(=[N+](CC)CC)cc-3oc2c1 [Chemical Formula 7]
Amount of dissolved compound (CH2Cl2): >7% wt % | Amount of dissolved compound (Cyclohexanone): 2% wt % | Amount of dissolved compound (MeOH): >7% wt %

Structure (SMILES): CCN(CCOC(=O)NC1CCCCC1)c1ccc2c(-c3ccccc3S(=O)(=O)[O-])c3ccc(=[N+](CC)CC)cc-3oc2c1 [Chemical Formula 6]
Amount of dissolved compound (CH2Cl2): >7% wt % | Amount of dissolved compound (Cyclohexanone): 3% wt % | Amount of dissolved compound (MeOH): >7% wt %

Next, values leading:

Amount of dissolved compound (CH2Cl2): >7% wt % | Amount of dissolved compound (Cyclohexanone): 3% wt % | Amount of dissolved compound (MeOH): >7% wt %
Structure (SMILES): CCN(CCOC(=O)NC(C)(C)C)c1ccc2c(-c3ccccc3S(=O)(=O)[O-])c3ccc(=[N+](CC)CC)cc-3oc2c1 [Chemical Formula 5]

Amount of dissolved compound (CH2Cl2): >10% wt % | Amount of dissolved compound (Cyclohexanone): 5% wt % | Amount of dissolved compound (MeOH): >10% wt %
Structure (SMILES): CCN(CCOC(=O)NC(C)(C)C)c1ccc2c(-c3ccccc3S(=O)(=O)[O-])c3cc/c(=[N+](/CC)CCOC(=O)NC(C)(C)C)cc-3oc2c1 [Chemical Formula 8]
